Consider two compounds from patent publication US7250157B2, “Dermatological compositions and methods” (Applied Genetics Incorporated Dermatics, priority 1996, dated 2007).

Assay [1] has as its system Cloudman S91 mouse melanoma cell line. Briefly: Melanin content of S91 cells after treatment with test compound. Format: cell-based. An outline of the steps: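 Mouse S91 melanoma cells seeded at 10^5 cells/35 mm dish in 10% calf serum and cultured with test compound 6 days at 37 °C, 5% CO2. Differentiation scored microscopically, trypsin detachment time recorded, cells counted; melanin measured by absorbance at 475 nm and expressed as pg melanin/cell.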

The test system is the same in assay [2]. The assay is described as follows: Microscopic morphology (differentiation) of S91 cells. Type of assay: cell-based. The procedure:
The Cloudman S91 mouse melanoma cell line was obtained from American Type Culture Collection (ATCC). Cells were cultured in Dulbecco's Modified Eagles Medium (DMEM) containing 10% calf serum, 2 mM L-glutamine, 10 U Penicillin/ml and 10 ug Streptomycin/ml according to a previously published protocol (Eller, et al., Proc. Natl. Acad. Sci. 93:1087-92. 1996). For testing propylene glycol and analogues for induction of melanogenesis, S91 cells were plated at 10^5 cells/35 mm dish in 10% calf serum. One day after plating, media was removed and replaced with media containing 2% calf serum and test compounds (Eller, et al., 1996). Cells were cultured for 6 days at 37° C. in 5% CO2 in a humidified incubator. Following this treatment period, cells were examined microscopically and the portion of dedifferentiated and differentiated cells was estimated. Previous studies have shown that dedifferentiated S91 cells have a rounded, spindly appearance while differentiated S91 cells have a flattened, cuboidal, multipolar and dendritic appearance (Orlow, et al., Exp. Cell Res. 191:209-218, 1990).

Assay [3] has the same test system. The assay is described as follows: Trypsinization detachment time of S91 cells. Format: cell-based. As for the experimental part: Following this microscopic examination, cells were detached from dishes by trypsin. The time required for detachment by trypsin was recorded as an additional indicator of the phenotypic effects of test compounds. For each treatment, a subsample of cells was counted to determine the effects of treatment compounds on cellular proliferation. The remainder of cells were used for determination of melanin content. Melanin was extracted from cells by vortexing for 15 min in 1N NaOH. Standards were prepared by dissolving melanin (Sigma) in 1 N NaOH (Eller, et al., 1996). Absorbance of standards and samples was measured at 475 nm. Melanin was expressed as pg melanin/cell.

For assay [4], the system named is normal human epidermal melanocytes (NHEM). Briefly: Morphological differentiation of NHEM. Type of assay: cell-based. As to conditions: 5 mM. The procedure:
Additionally, the length of dendrites was increased approximately 2-3-fold following treatment with 5 mM 5-NBene-2,2-DM, and there was an increase in the number of secretatory vesicles at the termini of dendrites (arrows in FIGS. 3A and 3B). […] Increased secretion of melanosomes resulting from treatment with 5 mM 5-NBene-2,2-DM was reflected in increased extracellular particulate tyrosinase activity (Example 7, Table 11).

The subject of assay [5] is nitric oxide in cell-free media from S91 cells. The assay is described as follows: Nitric oxide in cell-free media from S91 cells (Greiss reagent). Format: cell-based, mouse. As to conditions: 4 days. The procedure: In a related experiment, nitric oxide was measured in cell-free media from S91 cells following treatment with a range of concentrations of 2,3-cis/exo-pinanediol or 5-norbornene-2,2-dimethanol for 4 days. In biological fluids, nitric oxide is converted into nitrite and nitrate with seconds of production. Therefore, nitric oxide is measured by first converting nitrate to nitrite using nitrate reductase, followed by addition of Greiss reagent to detect nitrite as optical density at 550 nm (Moshage, et al., 1995, Clin. Chem. 41:892-896; Schmidt, et al., 1995, Biochemica 2:22)). […] Moreover, the relative melanogenic potency of 2,3-cis/exo-pinanediol and 5-norbornene-2,2-dimethanol shown in FIG. 5 paralleled the relative potency of these compounds with regards to induction of nitric oxide (Table 17). […] It follows that measurement of induction of nitric oxide, cGMP or PKG may provide biochemically relevant screening assays for compounds that may be melanogenic. Thus, the utilization of these assays to screen compounds for melanogenic activity is claimed in the present invention.

Turning to `CC(O)CO` (centres unmarked) [1,2-propanediol, 1,2-Propanediol (Propylene Glycol)], the “Concentration Required for ≧2-fold Melanin Induction in S91 Cells” value in assay [1] came to 150 mM. Besides, the “pg Melanin/Cell” value in assay [1] (50 mM) was 15.6 pg Melanin/Cell; in assay [1] (150 mM) it was 24.0 pg Melanin/Cell; in assay [1] (1% (136 mM), 6 days), 9.4 pg Melanin/Cell; in assay [1] (2% (272 mM), 6 days), 12.5 pg Melanin/Cell; in assay [1] (3% (408 mM), 6 days), 20.2 pg Melanin/Cell; in assay [1] (4% (544 mM), 6 days) it was 40.1 pg Melanin/Cell. In assay [1] (5% (680 mM), 6 days), the “pg Melanin/Cell” value is 28.9 pg Melanin/Cell. Also, the “ug Melanin” value is 1.31 µg in assay [1] (50 mM); 1.73 µg in assay [1] (150 mM); 4.88 µg in assay [1] (1% (136 mM), 6 days); 6.24 µg in assay [1] (2% (272 mM), 6 days); 4.03 µg in assay [1] (3% (408 mM), 6 days); 4.01 µg in assay [1] (4% (544 mM), 6 days). Moreover, the “ug Melanin” value in assay [1] (5% (680 mM), 6 days) came out at 2.31 µg. For the same compound, the “Morphology Flattened Cuboidal” value in assay [2] (50 mM) is recorded as 25%; in assay [2] (150 mM), 50%; in assay [2] (1% (136 mM)) it was 10%; in assay [2] (2% (272 mM)) it was 30%; in assay [2] (3% (408 mM)) it was 60%; in assay [2] (4% (544 mM)), 85%. Besides, the “Morphology Flattened Cuboidal” value in assay [2] (5% (680 mM)) was determined as 100%. For the same compound, the “Morphology Rounded Spindly” value in assay [2] (50 mM) is on record as 75%; in assay [2] (150 mM) it was 50%; in assay [2] (1% (136 mM)) it was 90%; in assay [2] (2% (272 mM)), 70%; in assay [2] (3% (408 mM)), 40%; in assay [2] (4% (544 mM)), 15%. Moreover, the “Trypsinization Detachment Time” value in assay [3] (50 mM) is on record as 3 min; in assay [3] (150 mM), 6 min; in assay [3] (1% (136 mM)) it was “≦6 min”; in assay [3] (2% (272 mM)) it was “≦9 min”; in assay [3] (3% (408 mM)) it was “≦12 min”; in assay [3] (4% (544 mM)), “≦15 min”. Besides, in assay [3] (5% (680 mM)), the “Trypsinization Detachment Time” value is recorded as “≦15 min”.

In the case of `OCC1(CO)CC2C=CC1C2` (centres unmarked) [5-NBene-2,2-DM, 5-norbornene-2,2-dimethanol], in assay [4], the “increase of length of dendrites of NHEM” value was 2-3 fold and the “morphological changes of NHEM (in words)” value is recorded as “conversion of cells from a bipolar phenotype to a multidendritic phenotype”. For the same compound, the “Concentration Required for ≧2-fold Melanin Induction in S91 Cells” value in assay [1] was determined as 5 mM. In assay [5] (1 mM), the “nmoles NO/10^6 Cells” value was determined as 11.6 ± 1.1 nmoles NO/10^6 Cells and the “uM NO” value was found to be 4.80 ± 0.32 µM. In assay [5] (2.5 mM), the “nmoles NO/10^6 Cells” value is 21.4 ± 3.7 nmoles NO/10^6 Cells and the “uM NO” value amounted to 5.46 ± 0.32 µM. In assay [5] (5 mM), the “nmoles NO/10^6 Cells” value was found to be 72.9 ± 10.5 nmoles NO/10^6 Cells and the “uM NO” value came to 6.36 ± 0.12 µM.
